Like-named read-outs stand apart in the source and are kept apart here.
Assays:
[1] = test system: adjuvant-induced arthritis; settings: J. Med. Chem., 1979, 22:1385-9; cited from earlier work
[2] = test system: adjuvant-induced polyarthritis (hind paw volume); assay: Modified developing adjuvant arthritis in rats (adjuvant-induced polyarthritis, AIP); type: in vivo, male Lewis rats; settings: for inhibition in vivo at 100 mg/kg: 100 mg/kg once daily p.o. d. 1-8
Experimental: A. Modified Developing Adjuvant Arthritis in Rats
This test is based on the procedure originally described by Pearson (Proc. Soc. Biol. Med., 1956, pp 91-5). Each experimental group used six male Lewis rats weighing approx. 250 gm. Arthritis was produced by a single intradermal injection of Mycobacterium butyricum (0.6 mg in 0.1 ml mineral oil) into the base of the tail. Test compounds were administered orally, once daily, starting on the day of inoculation (day 1) through day 8. The initial dosage was reduced during this period when side effects were observed. The paw volume (average of two hind paws) was measured by the merccury displacement method at least twice weekly during the course of the experiment (40 to 42 days). The efficacy of a compound was expressed as the percent reduction of hind paw volume of treated vs. untreated rats using the following equation: [formula]
^a once daily, p.o., from d. 1-8 (unless otherwise specified).
^b % Inhibition of paw edema: 0 = <25; + = 25- <40; ++ = 40-<60; +++

[3] = test system: delayed-type hypersensitivity (DTH) response; assay: Delayed type hypersensitivity (DTH) response to Mycobacterium butyricum challenge in rats; type: in vivo, male Lewis rats
Experimental: C. Delayed Type Hypersensitivity (DTH)
Male Lewis rats were immunized on Day 1. Mycobacterium butyricum in mineral oil (6 mg/ml) was injected into the base of the tail at 0.1 ml per rat. A negative control group receiving an equal amount of mineral oil was included. Drug therapy was administered orally from day one to day eight. Delayed type hypersensitivity was tested on day 9. Purified protein derivative (Tuberculin PPD, Statens Seruminstitute, Tuberculin Department, DK-2300 Copenhagen S, Denmark) was dissolved in phosphate buffered saline at 2.5 mg/ml. Twenty μl (50 μg) of the PPD solution was injected intradermally into the right ear of the rat, and the conralateral ear received 20 μl of the phosphate buffered saline vehicle. Forty-eight hours after injection the thickness of both ears was measured to the nearest 0.01 mm using a hand held caliper. The difference between the thickness of right and left ears was defined as the delta value for each rat. Group means and standard errors were compared using a Dunnett's 2-tail test.

[4] = Rattus norvegicus, po, 480 h, read d. 20-22, read-out: AIP Inhib. score (% Inhibition of paw edema) d. 20-22
[5] = Rattus norvegicus, po, 960 h, read d. 40-42, read-out: AIP Inhib. score (% Inhibition of paw edema) d. 40-42

Row | Structure (SMILES) | inhibition in vivo at 100 mg/kg [2, 4] [%] | inhibition in vivo at 100 mg/kg [2, 5] [%] | other results
1 | N#CCC(=O)c1ccccc1 [Benzoylacetonitrile (I), Benzoylacetonitrile] | – | – | inhibition of adjuvant-induced arthritis in rats [1]: effective inhibitors of adjuvant-induced arthritis in rats
2 | CNC(=O)C(C#N)C(=O)C1CC1 (stereo not drawn) [Example 1, β-Cyclopropyl-β-oxo-α-methylcarbamoylpropionitrile] | 80 to 100 | 80 to 100 | % Reduction-DTH ([3]; 10 mg/kg/d × 8 d. p.o.): 20%; % Reduction-DTH ([3]; 30 mg/kg/d × 8 d. p.o.): 41%; % Reduction-DTH ([3]; 60 mg/kg/d × 8 d. p.o.): 56%; immunomodulating activity (ability to reduce delayed hypersensitivity) ([3]; arthritic rats): exhibits immunomodulating activity
3 | CN(C)C(=O)C(C#N)C(=O)C1CC1 (stereo not drawn) [Example 3, β-Cyclopropyl-α-dimethylcarbamoyl-β-oxopropionitrile] | 60 to 80 | 60 to 80 | –
4 | C#CCNC(=O)C(C#N)C(=O)C1CC1 (stereo not drawn) [Example 4, β-Cyclopropyl-β-oxo-α-propargylcarbamoylpropionitrile] | – | – | AIP Inhib. score (% Inhibition of paw edema) d. 40-42 ([2]; 50 mg/kg once daily p.o. d. 1-8, read d. 40-42): ++ +; inhibition in vivo at 50 mg/kg ([2]; Rattus norvegicus, po, 480 h, 50 mg/kg once daily p.o. d. 1-8, read d. 20-22, read-out: AIP Inhib. score (% Inhibition of paw edema) d. 20-22): 60 to 80%
5 | N#CC(C(=O)NC1CCC1)C(=O)C1CC1 (stereo not drawn) [Example 6, α-Cyclobutylcarbamoyl-β-cyclopropyl-β-oxopropionitrile] | 25 to 40 | 25 to 40 | –
6 | CNC(=O)C(C#N)C(=O)C1CCC1 (stereo not drawn) [Example 7, β-Cyclobutyl-β-oxo-α-methylcarbamoylpropionitrile] | < 25 | 25 to 40 | –

Source: US4888357A, “Antiarthritic β-cycloalkyl-β-oxopropionitriles” (Bristol-Myers Company, priority 1988, dated 1989)
